Read-outs that look alike come from different tables or passages of the source. Marks after values point to notes of the source that are not given here. One block for each compound: values may come before it.
Legend:
[1] = UV absorption spectrum (spectral properties); format: physicochemical; conditions: footnote b: this work
[2] = Autoxidation rate in air-saturated phosphate buffer, followed spectrophotometrically; format: physicochemical; conditions: air saturated 0.05M phosphate buffer pH 7.0, 1 mM EDTA, 25° C., [Pyrimidine] = 2.4 × 10^−5 M
Experimental: The autoxidation rate was measured in air-saturated buffer phosphate solutions 0.05 M at pH 7 and 25° C. The solutions contained 1 mM EDTA to minimize catalysis of the oxidation by trace metallic cations. The rate of autoxidation was measured spectrophotometrically by following the decrease of the UV absorbance of the pyrimidines at their respective λ max (Table 1).
This is probably the reason why there was no transient appearance of an absorption maximum around 240-255 nm which is assumed to be due to the intermediacy of oxidized pyrimidine B (Scheme 1), and was found in the autoxidation of isouramil, divicine and related systems. The decrease in the absorbance of 8a-c, followed a reasonably pseudo first order reaction in the pyrimidine concentration (the dissolved oxygen concentration was at least 13 times higher). However, it was found (Winterbourn, C. C.; Cowden, W. B.; Sutton, H. Biochem. Pharmacol. 1989, 38, 611-618) that the reaction mechanism is complex and involves radical intermediates and chain reactions and that the dependency on the pyrimidine concentration is far from simple. Therefore, in accordance with the present invention a different approach was adapted that uses the measured initial reaction rates for checking the quantitative dependency of the oxidation rate on the electron releasing power of the substituent in the C2 position. Table 1 also contains the initial rates for the reactions of isouramil and divicine (8d and 8e) calculated from Winterbourn, C. C.; Cowden, W. B.; Sutton, H. Biochem. Pharmacol. 1989, 38, 611-618; (aerated 0.05M phosphate buffer, pH 7, 23° C., 50 nM DTPA and similar to our pyrimidine concentrations) using ΔH of 60.2 kJ/mole (Chevion et al.^5a).

[3] = footnote d: reference; cited from earlier work
[4] = calculated from literature (aerated 0.05M phosphate buffer, pH 7, 23° C., 50 nM DTPA) using ΔH of 60.2 kJ/mole; cited from earlier work
[5] = system: murine erythroleukemic cells; conditions: cited from earlier work
[6] = system: tumor necrosis factor (TNF); conditions: in-vitro and in-vivo; cited from earlier work

SMILES: O=c1[nH]cnc(N=Nc2ccccc2)c1O [7b, 5-Hydroxy-6-phenylazo-3H-pyrimidine-4-one]
melting point: 244 to 245 °C

SMILES: O=c1[nH]c(S)ncc1OC1CCCCO1 (centres unmarked) [5c, 2-Mercapto-5-(tetrahydro-pyran-2-yloxy)-3H-pyrimidin-4-one]
melting point: > 300 °C

SMILES: Nc1nc(O)[nH]c(=O)c1O [OH, 6-amino-2,5-dihydroxypyrimidin-4-one]
ε at λmax [3]: 14100 | λmax [3]: 280 nm | Initial rate (autoxidation) [4]: 0.067^e μM/sec

SMILES: Nc1nc(N)c(O)c(O)n1 [NH2, 2,6-diamino-5-hydroxypyrimidin-4-one]
ε at λmax [3]: 9800 | λmax [3]: 285 nm | Initial rate (autoxidation) [4]: 0.061^e μM/sec | cytotoxicity in combination with carboplatin [5]: synergistic cytotoxicity | effect on lipopolysaccharide-induced release of TNF [6]: enhances

SMILES: Cc1ncc(OC2CCCCO2)c(=O)[nH]1 (centres unmarked) [5a, 2-Methyl-5-(tetrahydro-2H-pyran-2-yloxy)pyrimidin-4(3H)-one]
melting point: 149 to 151 °C

Continued, in another order:

melting point: 243 to 245 °C
SMILES: Cc1nc(N=Nc2ccccc2)c(O)c(=O)[nH]1 [7a, 5-Hydroxy-2-methyl-6-phenylazo-3H-pyrimidin-4-one]

melting point: > 300 °C
SMILES: Cc1ncc(O)c(=O)[nH]1 [6a, 5-Hydroxy-2-methylpyrimidin-4(3H)-one]

melting point: > 300 °C
SMILES: O=c1[nH]c(S)ncc1O [6c, 5-Hydroxy-2-mercapto-3H-pyrimidin-4-one]

melting point: 213 to 215 °C
SMILES: CSc1nc(N=Nc2ccccc2)c(O)c(=O)[nH]1 [7c, 5-Hydroxy-2-methylsulfanyl-6-phenylazo-3H-pyrimidin-4-one]

ε at λmax [1]: 13000 | λmax [1]: 274 nm | melting point: > 300 °C
SMILES: Nc1nc[nH]c(=O)c1O [H, 6-Amino-5-hydroxypyrimidin-4(3H)-one]
Initial rate (autoxidation) [2]: 0.00087^c μM/sec

ε at λmax [1]: 10800 | λmax [1]: 286 nm
SMILES: CSc1nc(N)c(O)c(=O)[nH]1 [SCH3, 6-Amino-5-hydroxy-2-(methylthio)pyrimidin-4-(3H)-one]
Initial rate (autoxidation) [2]: 0.0097^c μM/sec

ε at λmax [1]: 16200 | λmax [1]: 275 nm | melting point: > 300 °C
SMILES: Cc1nc(N)c(O)c(=O)[nH]1 [CH3, 6-Amino-5-hydroxy-2-methylpyrimidin-4(3H)-one]
Initial rate (autoxidation) [2]: 0.0015^c μM/sec
